From patent US20030134859A1 (SANKYO COMPANY, LIMITED, priority 2000, published 2003)
Read-outs that look alike come from different tables or passages of the source.

Columns and labels:
[1] = system: human colon cancer cells COL-2-JCK; test: Inhibition of colony forming activity in human colon cancer cells; assay type: cell-based; conditions: Homo sapiens, 240 h; 1 μM test compound; 10 days; sum of colony areas vs control; read-out: Inhibition Rate (%) against the colony forming activity
Description: For the medium to culture the human colon cancer cells, D-MEM/F-12 medium containing inactivated bovine fetal serum at a concentration of 10% (GIBCO) was used. The human colon cancer cells COL-2-JCK (purchased from Institute for Experimental Animals) grown in mass formation in a plastic dish for the cell culture with an inner diameter of 100 mm were stripped off from the dish by using EDTA (ethylenediaminetetraacetic acid) and 0.05% trypsin solution. Then, a cell dilution solution was prepared at a concentration of 100 cells/mL solution which was diluted with the medium (D-MEM/F-12).
Three (3) mL of the cell solution were inoculated in each well of a 6-well plastic plate (300 cells/well). The test compound that was dissolved in DMSO solution so as to be a final concentration of 1 μM of the test compound and that of DMSO solution of 0.1% was added to each well. DMSO solution alone was added into the well for the control so as to be a final concentration of 0.1%.
The cells in each well were cultured for 10 days at 37° C. in the presence of 5% CO2. After the culturing was finalised, each well was washed once with Dulbecco-phosphate-buffer-saline solution (bivalent anion). Then, 1.5 ml of neutral buffered formalin solution containing 0.02% crystal violet was added to each well and the plate was kept stationary for 5 min for fixation and staining the cells. After fixation and staining, the cells were washed with water and were air-dried. Then the sum of the colony area (mm^2) of the stained cancer cells was calculated by using an image analyzer PCA-11 (SystemScience). From the calculated values, the inhibition rate (%) of the compound against the colony forming activity was obtained based on the following equation.
Inhibition Rate (%) against the colony forming activity=(1−A/B)×100
A: Sum of Colony Areas in the Group Treated with 1 μM of the Test Compound
B: Sum of Colony Areas in the Control Group

human PPAR γ 2 [2] = target: T1, human PPAR γ 2 (Homo sapiens, UniProt P37231); test: Inhibitory activity against PPAR γ transcription in the presence of agonist compound A, luciferase reporter; assay type: cell-based; conditions: in the presence of 10 nM compound A (agonist); MG63 cells transfected with pSG5-hPPARg and pGV-P2-PPRE; 24 hr
T1 construct: expressed in transfected cells; host or cells: human osteosarcoma MG63, transiently co-transfected with pSG5-hPPARg and the reporter pGV-P2-PPRE
T1 sequence (P37231 1-505): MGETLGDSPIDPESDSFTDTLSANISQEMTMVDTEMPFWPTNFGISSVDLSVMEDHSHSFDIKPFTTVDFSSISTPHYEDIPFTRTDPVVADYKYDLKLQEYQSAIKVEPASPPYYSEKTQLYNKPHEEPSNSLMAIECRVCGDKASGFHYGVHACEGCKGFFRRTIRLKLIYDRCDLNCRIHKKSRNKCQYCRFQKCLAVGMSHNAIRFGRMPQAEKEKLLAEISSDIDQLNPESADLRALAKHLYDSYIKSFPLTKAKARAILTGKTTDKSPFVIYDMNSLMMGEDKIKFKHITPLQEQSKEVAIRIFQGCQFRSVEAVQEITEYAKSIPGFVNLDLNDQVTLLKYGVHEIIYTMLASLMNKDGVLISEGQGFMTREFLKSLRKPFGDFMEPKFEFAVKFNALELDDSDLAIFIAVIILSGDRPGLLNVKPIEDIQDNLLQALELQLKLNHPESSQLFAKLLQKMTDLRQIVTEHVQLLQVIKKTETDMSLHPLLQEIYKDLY
Text: The primers of the polymerase chain reaction (hereinafter “PCR”) were designed according to the gene sequence of human PPAR γ 2 (GenBANK accession No. D83233). […] For this, 2 kinds of polynucleotides shown in the sequence numbers 1 and 2 in the sequence table described below (hereinafter “S1” and “AS1”, respectively) were used as PCR primers.
(§1) In order to determine transcriptional activity via PPAR γ, 2 kinds of polynucleotides represented in sequence numbers 3 and 4 in the sequence table described below (hereinafter “S2” and “AS2”, respectively) were used for construction of the reporter plasmid having PPAR responsive element. The DNA fragment inserted was designed based on the gene sequence in the promoter region of rat acylCo-A oxidase (J. D. Tugwood, EMBO J., 11 (2), pp433-439 (1992)). For insertion of the DNA fragment into the reporter plasmid pGV-P2 (TOYO INK MFG CO., LTD), a NheI site and an XhoI site were added to the S2 and AS2, respectively.
Using cDNA library (Clontech) derived from human adipose tissue as a template, DNA oligomers S1 and AS1 that were synthesized in the procedure 1 as primers and Ex-Taq™ (TAKARA BIO INC.) as a thermostable DNA polymerase-PCR was carried out. […] Each cycle consisted of incubation at 94° C. for 1 min for denaturation of the template, then at 55° C. for 30 sec for annealing of DNA oligomers the PCR primer, and then at 72° C. for 30 sec for extension of the chain. The obtained DNA fragments with approximately 1500 base pairs were digested at the Bgl II sites and were inserted into BamHI sites of pSG5. Thus a human PPAR γ expression plasmid named pSG5-hPPAR g was obtained.
(§2) Vector pGV-P2 digestion products was prepared by digestion using the restriction enzymes, NheI and XhoI, and purified by 1.0% agarose-gel electrophoresis. The DNA oligomers, S2 and AS2 obtained in Procedure 2, were mixed together and were incubated in a hot bath at 94° C. for 1 min. After the annealing was partially broken, they were further incubated at 25° C. for 1 hr. Thus double-stranded DNA with annealing of S2 and AS2 was formed. Then, the terminus of the double-stranded DNA with annealing of S2 and AS2 was phosphorylated with DNA polynucleotide kinase (TOYOBO CO., LTD). After that, it was ligated to the pGV-P2 digestion products which were prepared previously using the NheI site and XhoI site. Thus the reporter plasmid pGV-P2-PPRE was obtained.
(§3) Using the plasmid obtained by the procedures 3 and 4, transformation of Escherichia coli HB-101 strain was carried out by conventional methods. HB-101 strain having the plasmid was incubated in L-broth medium (containing 10 g of trypton (Difco), 5 g of yeast extract (Difco), 5 g of sodium chloride in 1 L of aqueous solution) containing 100 μg/ml of ampicillin at 37° C. for 17 hrs. Then, each plasmid was purified by the alkaline-SDS method and employed for the gene transfection to mammalian cells. After mixing the pSG5-hPPARg, PGV-P2-PPRE and LipofectAMINE reagent (GIBCO BRL), the human osteosarcoma MG63 was transiently transfected. Then the cells were recovered. The recovered cells were plated on a 96-well plate so as to be 30,000 cells/well and cultured in a CO2 incubator (NAPCO) at 37° C. for 24 hr under the condition of 5% CO2, 95%-RH.
Ten (10) nM of the following compound A (although compound A is described here as a representative compound, the compound is not limited to compound A, if the compound exerts a PPAR r agonistic activity) and various concentrations of the test compound were added to culturing medium of the cells prepared in the Procedure 5.

human PPAR γ 2 [3] = target: T1, human PPAR γ 2; test: PPAR γ transcriptional activity, luciferase reporter, test compound alone; assay type: cell-based; conditions: concentration indicating Emax/2, MG63 cells transfected with pSG5-hPPARg and pGV-P2-PPRE, 24 hr
Description: The primers of the polymerase chain reaction (hereinafter “PCR”) were designed according to the gene sequence of human PPAR γ 2 (GenBANK accession No. D83233). In order to insert the genes into the BamHI site of the plasmid pSG5 ([…] CLONING SYSTEMS), Bgl II sites were added upstream and downstream of the genes encoding human PPAR γ 2 protein. For this, 2 kinds of polynucleotides shown in the sequence numbers 1 and 2 in the sequence table described below (hereinafter “S1” and “AS1”, respectively) were used as PCR primers.
as §1
Using cDNA library (Clontech) derived from human adipose tissue as a template, DNA oligomers S1 and AS1 that were synthesized in the procedure 1 as primers and Ex-Taq™ (TAKARA BIO INC.) as a thermostable DNA polymerase-PCR was carried out. As a result of the PCR, the c.a. 1500 bps DNA fragments were amplified. Each cycle consisted of incubation at 94° C. for 1 min for denaturation of the template, then at 55° C. for 30 sec for annealing of DNA oligomers the PCR primer, and then at 72° C. for 30 sec for extension of the chain. The obtained DNA fragments with approximately 1500 base pairs were digested at the Bgl II sites and were inserted into BamHI sites of pSG5. Thus a human PPAR γ expression plasmid named pSG5-hPPAR g was obtained. The nucleotide sequence of the inserted DNA fragment was confirmed to be identical sequence to the human PPAR γ 2 reported by the dideoxy method.
as §2, §3
Various concentrations of the test compound alone were added to culturing medium of the cells prepared in the Procedure 5. After 24 hr of culturing, LT2.0 (TOYO INK MFG CO., LTD), a luciferase substrate, was added to the medium free culture plate. […]

[4] = system: Mouse preadipocyte strain 3T3-L1; test: Inhibition of differentiation as an indication of acetic acid uptake; assay type: cell-based; conditions: Mus musculus, 3T3-L1, 0.1 μM test substance, control (0.01% dimethylsulfoxide) = 100%, read-out: Rate of Uptake (%) of [2-14C] acetic acid
Outline: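 Confluent 3T3-L1 cells induced to differentiate for 4 days (insulin, IBMX, dexamethasone, 5% FBS) with test compound at 0.1 μM final or 0.01% DMSO, then 2 days in insulin maintenance medium, at 37 °C, 10% CO2. [2-14C]acetic acid uptake over 1 hr counted by scintillation; expressed as % of DMSO control.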

Balb/c mice = test: Prevention of concanavalin A liver injury; assay type: in vivo, mouse; conditions: Mus musculus, po, 24 h, 10 mg/mL suspension at 10 mL/kg, 30 min prior to Con A, plasma 24 hr after Con A
Description: Five (5) Balb/c mice (female, 6-8 weeks old) per group were used. Liver injury was elicited in the mouse by injection of concanavalin A (Con A) dissolved in saline (2.0 mg/mL) into the tail vein at a volume of 10 mL/kg of the solution (Hepatology, 21, 190-198 (1995)).
The test compounds were suspended in distilled water containing 0.5% CMC, at a concentration of 10 mg/mL. This suspended solution was orally administered to the mouse at a volume of 10 mL/kg, 30 min prior to injection of Con A (group A).
Apart from this group, distilled water containing 0.5% CMC powder, instead of the test compound, was orally administered in the second group of mice (group B). In the 3rd group, nothing was given to the mice (group C).
Twenty four (24) hr after the injection of Con A, blood was collected from the abdominal aorta of the mice and the plasma was isolated while mixing with heparin. Activities of glutamic acid oxaloacetic acid transaminase (AST) and glutamic acid pyruvic acid transaminase (ALT) in the plasma were determined according to the methods described by Nagakawa et al. (J. Pharmacol. Exp. Ther., 264, 496-500 (1993)). From the values obtained inhibitory rates of the test compound against AST and ALT levels which had been increased by injection of Con A, were obtained based on the following equation.
Inhibitory Rate(%)={1−[(A−C)/(B−C)]}×100
A: The average level of AST or ALT in the group A
B: The average level of AST or ALT in the group B
C: The average level of AST or ALT in the group C

Rat white adipocytes = test: Stimulation of differentiation of the adipocytes (Oil Red O); assay type: cell-based; conditions: Rattus norvegicus, Adipocyte, 120 h, 100 nM test compound; 5 days; Oil Red O ABS550; control = 100%, blank = 0%; Table 7; read-out: Rate of Differentiation (%)
Outline: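 Rat white adipocytes, 5,000 cells/well, cultured 5 days in differentiation-inducing medium with test compound at final 100 nM (0.1% DMSO). Cells fixed, stained with Oil Red O, dye extracted in DMSO and read at 550 nm; differentiation rate expressed relative to vehicle control (100%) and cell-free blank (0%).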

[5] = read-out: Preventing rate against liver injury, ALT (%)
[6] = read-out: Preventing rate against liver injury, AST (%)

| SMILES | inhibition at 1 µM [1] [%] | IC50 (human PPAR γ 2 [2]) [nM] | EC50 (human PPAR γ 2 [3]) [nM] | activity at 0.1 µM [4] [%] | inhibition in vivo at 10000 µg/mL, 100 mg/kg (Balb/c mice; [5]) [%] | inhibition in vivo at 10000 µg/mL, 100 mg/kg (Balb/c mice; [6]) [%] | activity at 0.1 µM (Rat white adipocytes) [%] |
| --- | --- | --- | --- | --- | --- | --- | --- |
| Cc1nc(NS(=O)(=O)c2ccc(NC(=O)c3cc([N+](=O)[O-])ccc3Cl)cc2)oc1C [Example 97, N-[4-(4,5-Dimethyloxazol-2-yl)aminosulfonyl]phenyl-(2-chloro-5-nitrophenyl)carboxamide] | 3 | 790 | 360 | – | – | – | – |
| CS(=O)(=O)Nc1ccc(NC(=O)c2cc([N+](=O)[O-])ccc2Cl)cc1 [Example 136, N-(4-Methanesulfonylaminophenyl)-(2-chloro-5-nitrophenyl)carboxamide] | – | – | – | 88.9 | 13.1 | 12 | 129 |
| Cc1ccc(NS(=O)(=O)c2cccc(NC(=O)c3cc([N+](=O)[O-])ccc3Cl)c2)cc1 [Example 142, N-[3-(4-Tolylaminosulfonyl)phenyl]-(2-chloro-5-nitrophenyl)carboxamide] | – | – | – | 74.4 | 54 | 63 | 112 |
